Experiments:
Rattus norvegicus [1] = experiment: Anti-inflammatory activity against carrageenan-induced paw oedema in rat assessed as paw thickness at 100 mg/kg measured immediately (reference value: 0.98 +/- 0.03 cm); format: functional
Rattus norvegicus [2] = experiment: Anti-inflammatory activity against carrageenan-induced paw oedema in albino rat assessed as paw thickness at 100 mg/kg measured at 3 hrs post dose (reference value: 0.93 +/- 0.02 cm); format: functional
Rattus norvegicus [3] = experiment: Anti-inflammatory activity against carrageenan-induced paw oedema in albino rat assessed as paw thickness at 100 mg/kg measured at 6 hrs post dose (reference value: 0.92 +/- 0.03 cm); format: functional
Rattus norvegicus [4] = experiment: Analgesic activity in albino rat model of thermal-induced nociception assessed as tail withdrawal latency time at 100 mg/kg, po measured immediately by tail immersion test (reference value: 2.60 +/- 0.14 min); format: functional
Rattus norvegicus [5] = experiment: Analgesic activity in albino rat model of thermal-induced nociception assessed as tail withdrawal latency time at 100 mg/kg, po measured at 60 mins post dose by tail immersion test (reference value: 2.62 +/- 0.11 min); format: functional
Rattus norvegicus [6] = experiment: Analgesic activity in albino rat model of thermal-induced nociception assessed as tail withdrawal latency time at 100 mg/kg, po measured at 120 mins post dose by tail immersion test (reference value: 2.63 +/- 0.15 min); format: functional
Rattus norvegicus [7] = experiment: Analgesic activity in albino rat model of thermal-induced nociception assessed as tail withdrawal latency time at 100 mg/kg, po measured at 180 mins post dose by tail immersion test (reference value: 2.62 +/- 0.13 min); format: functional
Rattus norvegicus [8] = experiment: Analgesic activity in albino rat model of thermal-induced nociception assessed as tail withdrawal latency time at 100 mg/kg, po measured at 240 mins post dose by tail immersion test (reference value: 2.62 +/- 0.13 min); format: functional
Rattus norvegicus [9] = experiment: Analgesic activity in albino rat model of thermal-induced nociception assessed as tail withdrawal latency time at 100 mg/kg, po measured at 300 mins post dose by tail immersion test (reference value: 2.58 +/- 0.11 min); format: functional
[10] = molecular target: Prostaglandin G/H synthase 1 (Homo sapiens, UniProt P23219); experiment: Inhibition of COX1 (unknown origin) using arachidonic acid as substrate pretreated for 10 mins followed by substrate addition measured after 2 mins by enzyme-immunoassay
[11] = molecular target: T1, Prostaglandin G/H synthase 2 (Homo sapiens, UniProt P35354); experiment: Inhibition of COX2 (unknown origin) using arachidonic acid as substrate pretreated for 10 mins followed by substrate addition measured after 2 mins by enzyme-immunoassay
T1 sequence (P35354 whole entry): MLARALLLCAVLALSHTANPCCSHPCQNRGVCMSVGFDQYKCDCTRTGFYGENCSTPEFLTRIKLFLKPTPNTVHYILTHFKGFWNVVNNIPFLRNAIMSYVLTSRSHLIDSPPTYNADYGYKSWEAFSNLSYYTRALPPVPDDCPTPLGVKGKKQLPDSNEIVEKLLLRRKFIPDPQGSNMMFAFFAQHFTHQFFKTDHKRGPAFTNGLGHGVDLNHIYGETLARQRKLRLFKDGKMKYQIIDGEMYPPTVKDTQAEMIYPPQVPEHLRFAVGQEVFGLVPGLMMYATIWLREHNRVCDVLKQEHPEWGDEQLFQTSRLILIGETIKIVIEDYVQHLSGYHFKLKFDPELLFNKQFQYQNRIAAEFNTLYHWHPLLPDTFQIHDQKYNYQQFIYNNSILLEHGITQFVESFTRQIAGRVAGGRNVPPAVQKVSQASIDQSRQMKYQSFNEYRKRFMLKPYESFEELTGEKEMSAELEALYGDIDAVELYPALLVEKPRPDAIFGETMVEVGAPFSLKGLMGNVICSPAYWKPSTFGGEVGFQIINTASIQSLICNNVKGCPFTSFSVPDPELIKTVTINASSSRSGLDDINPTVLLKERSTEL

Homo sapiens = species on record: Homo sapiens; experiment: Selectivity index, ratio of IC50 for COX1 (unknown origin) to IC50 for COX2 (unknown origin)

Sequence of Prostaglandin G/H synthase 1 (P23219 whole entry): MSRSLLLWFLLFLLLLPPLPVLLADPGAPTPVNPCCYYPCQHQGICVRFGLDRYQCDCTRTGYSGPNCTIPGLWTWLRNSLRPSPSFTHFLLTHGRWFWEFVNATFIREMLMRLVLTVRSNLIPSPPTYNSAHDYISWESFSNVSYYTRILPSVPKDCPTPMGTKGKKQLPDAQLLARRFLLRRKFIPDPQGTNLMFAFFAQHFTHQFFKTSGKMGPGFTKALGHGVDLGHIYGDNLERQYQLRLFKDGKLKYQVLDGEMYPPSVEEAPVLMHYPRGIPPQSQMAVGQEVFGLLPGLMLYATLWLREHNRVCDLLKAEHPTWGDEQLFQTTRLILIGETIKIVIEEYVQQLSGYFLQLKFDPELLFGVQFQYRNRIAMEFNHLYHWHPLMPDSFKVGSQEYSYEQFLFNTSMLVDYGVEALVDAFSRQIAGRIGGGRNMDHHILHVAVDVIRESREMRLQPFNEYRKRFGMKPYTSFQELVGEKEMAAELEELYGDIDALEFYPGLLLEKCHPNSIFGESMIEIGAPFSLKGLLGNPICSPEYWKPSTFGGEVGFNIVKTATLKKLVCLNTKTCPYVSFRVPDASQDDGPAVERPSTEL

O=C(NN1C(=O)C=CC1=O)c1ccccc1O
Activity (Rattus norvegicus [1]): 1 cm
Activity (Rattus norvegicus [2]): 0.83 cm
Activity (Rattus norvegicus [3]): 0.77 cm
Time (Rattus norvegicus [4]): 2.58 min
Time (Rattus norvegicus [5]): 5.98 min
Time (Rattus norvegicus [6]): 5.52 min
Time (Rattus norvegicus [7]): 5.47 min
Time (Rattus norvegicus [8]): 5.23 min
Time (Rattus norvegicus [9]): 5.13 min
IC50 [10]: Not Active
IC50 [11]: Not Active

O=C(NN1C(=O)CCC1=O)c1ccccc1O
Activity (Rattus norvegicus [1]): 1 cm
Activity (Rattus norvegicus [2]): 0.73 cm
Activity (Rattus norvegicus [3]): 0.62 cm
Time (Rattus norvegicus [4]): 2.42 min
Time (Rattus norvegicus [5]): 5.02 min
Time (Rattus norvegicus [6]): 4.98 min
Time (Rattus norvegicus [7]): 4.85 min
Time (Rattus norvegicus [8]): 5.28 min
Time (Rattus norvegicus [9]): 5.78 min
IC50 [10]: Not Active
IC50 [11]: Not Active

CCOC(=O)C1=C(N)n2c(=O)c3ncccc3c(=O)n2C1c1ccccc1O (stereo not given)
Activity (Rattus norvegicus [1]): 0.98 cm
Activity (Rattus norvegicus [2]): 0.68 cm
Activity (Rattus norvegicus [3]): 0.62 cm
Time (Rattus norvegicus [4]): 2.55 min
Time (Rattus norvegicus [5]): 5.83 min
Time (Rattus norvegicus [6]): 5.53 min
Time (Rattus norvegicus [7]): 5.75 min
Time (Rattus norvegicus [8]): 5.25 min
Time (Rattus norvegicus [9]): 4.08 min
IC50 ([10]; read-out: IC50): 66.7 nM
IC50 ([11]; read-out: IC50): 20.1 nM
Selectivity Index (Homo sapiens): 3.32

O=C(c1ccccc1O)n1nc(Nc2ccccc2)cc1-c1ccccc1O
Activity (Rattus norvegicus [1]): 0.97 cm
Activity (Rattus norvegicus [2]): 0.63 cm
Activity (Rattus norvegicus [3]): 0.55 cm
Time (Rattus norvegicus [4]): 2.47 min
Time (Rattus norvegicus [5]): 3.95 min
Time (Rattus norvegicus [6]): 4.05 min
Time (Rattus norvegicus [7]): 4.18 min
Time (Rattus norvegicus [8]): 4.07 min
Time (Rattus norvegicus [9]): 4.22 min
IC50 ([10]; read-out: IC50): 70.4 nM
IC50 ([11]; read-out: IC50): 16.2 nM
Selectivity Index (Homo sapiens): 4.35

O=C(/C=C/c1ccccc1O)Nc1ccccc1
Activity (Rattus norvegicus [1]): 1.02 cm
Activity (Rattus norvegicus [2]): 0.83 cm
Activity (Rattus norvegicus [3]): 0.65 cm
Time (Rattus norvegicus [4]): 2.63 min
Time (Rattus norvegicus [5]): 3.78 min
Time (Rattus norvegicus [6]): 4.12 min
Time (Rattus norvegicus [7]): 4.18 min
Time (Rattus norvegicus [8]): 3.92 min
Time (Rattus norvegicus [9]): 3.97 min

CC1=NN(C(=O)c2ccccc2O)C(=O)C1
Activity (Rattus norvegicus [1]): 1.02 cm
Activity (Rattus norvegicus [2]): 0.77 cm
Activity (Rattus norvegicus [3]): 0.67 cm
Time (Rattus norvegicus [4]): 2.48 min
Time (Rattus norvegicus [5]): 5.52 min
Time (Rattus norvegicus [6]): 4.78 min
Time (Rattus norvegicus [7]): 4.7 min
Time (Rattus norvegicus [8]): 4.67 min
Time (Rattus norvegicus [9]): 4.4 min
IC50 ([10]; read-out: IC50): 82.1 nM
IC50 ([11]; read-out: IC50): 151 nM
Selectivity Index (Homo sapiens): 0.54

O=C(NN1C(=O)c2ccccc2C1=O)c1ccccc1O
Activity (Rattus norvegicus [1]): 0.98 cm
Activity (Rattus norvegicus [2]): 0.73 cm
Activity (Rattus norvegicus [3]): 0.72 cm
Time (Rattus norvegicus [4]): 2.55 min
Time (Rattus norvegicus [5]): 5.58 min
Time (Rattus norvegicus [6]): 5.58 min
Time (Rattus norvegicus [7]): 6.25 min
Time (Rattus norvegicus [8]): 6.23 min
Time (Rattus norvegicus [9]): 7.2 min
IC50 ([10]; read-out: IC50): 92.2 nM
IC50 ([11]; read-out: IC50): 130 nM
Selectivity Index (Homo sapiens): 0.71

CCOC(=O)C1=C(N)n2c(=O)c3ccccc3c(=O)n2C1c1ccccc1O (stereo not given)
Activity (Rattus norvegicus [1]): 0.97 cm
Activity (Rattus norvegicus [2]): 0.72 cm
Activity (Rattus norvegicus [3]): 0.67 cm
Time (Rattus norvegicus [4]): 2.52 min
Time (Rattus norvegicus [5]): 5.53 min
Time (Rattus norvegicus [6]): 6.68 min
Time (Rattus norvegicus [7]): 6.85 min
Time (Rattus norvegicus [8]): 6.33 min
Time (Rattus norvegicus [9]): 5.62 min
IC50 [10]: Not Active
IC50 [11]: Not Active

Cc1cc(C)n(C(=O)c2ccccc2O)n1
Activity (Rattus norvegicus [1]): 0.98 cm
Activity (Rattus norvegicus [2]): 0.75 cm
Activity (Rattus norvegicus [3]): 0.67 cm
Time (Rattus norvegicus [4]): 2.62 min
Time (Rattus norvegicus [5]): 6.05 min
Time (Rattus norvegicus [6]): 5.79 min
Time (Rattus norvegicus [7]): 4.83 min
Time (Rattus norvegicus [8]): 5.66 min
Time (Rattus norvegicus [9]): 4.8 min
IC50 [10]: Not Active
IC50 [11]: Not Active

O=C(NN1C(=O)c2cccnc2C1=O)c1ccccc1O
Activity (Rattus norvegicus [1]): 0.97 cm
Activity (Rattus norvegicus [2]): 0.83 cm
Activity (Rattus norvegicus [3]): 0.72 cm
Time (Rattus norvegicus [4]): 2.57 min
Time (Rattus norvegicus [5]): 3.78 min
Time (Rattus norvegicus [6]): 3.97 min
Time (Rattus norvegicus [7]): 4.3 min
Time (Rattus norvegicus [8]): 4.27 min
Time (Rattus norvegicus [9]): 4.17 min
IC50 [10]: Not Active
IC50 [11]: Not Active

O=C([O-])Cc1ccccc1Nc1c(Cl)cccc1Cl.[Na+] [DICLOFENAC SODIUM]
Activity (Rattus norvegicus [1]): 1.02 cm
Activity (Rattus norvegicus [2]): 0.77 cm
Activity (Rattus norvegicus [3]): 0.63 cm
Time (Rattus norvegicus [4]): 2.63 min
Time (Rattus norvegicus [5]): 6.44 min
Time (Rattus norvegicus [6]): 4.98 min
Time (Rattus norvegicus [7]): 4.87 min
Time (Rattus norvegicus [8]): 4.21 min
Time (Rattus norvegicus [9]): 3.99 min

CCOC(=O)C1=C(N)n2c(=O)ccc(=O)n2C1c1ccccc1O (stereo not given)
Activity (Rattus norvegicus [1]): 1.03 cm
Activity (Rattus norvegicus [2]): 0.82 cm
Activity (Rattus norvegicus [3]): 0.7 cm
Time (Rattus norvegicus [4]): 2.72 min
Time (Rattus norvegicus [5]): 4.33 min
Time (Rattus norvegicus [6]): 4.47 min
Time (Rattus norvegicus [7]): 4.58 min
Time (Rattus norvegicus [8]): 4.52 min
Time (Rattus norvegicus [9]): 4.43 min
IC50 ([10]; read-out: IC50): 74.4 nM
IC50 ([11]; read-out: IC50): 90.1 nM
Selectivity Index (Homo sapiens): 0.83

CCOC(=O)C1=C(N)N2C(=O)CCC(=O)N2C1c1ccccc1O (stereo not given)
Activity (Rattus norvegicus [1]): 1.02 cm
Activity (Rattus norvegicus [2]): 0.7 cm
Activity (Rattus norvegicus [3]): 0.65 cm
Time (Rattus norvegicus [4]): 2.63 min
Time (Rattus norvegicus [5]): 5.53 min
Time (Rattus norvegicus [6]): 6.68 min
Time (Rattus norvegicus [7]): 6.85 min
Time (Rattus norvegicus [8]): 6.33 min
Time (Rattus norvegicus [9]): 5.62 min
IC50 ([10]; read-out: IC50): 88.1 nM
IC50 ([11]; read-out: IC50): 181 nM
Selectivity Index (Homo sapiens): 0.47

From ChEMBL document CHEMBL4028830, “Novel pyrazoles and pyrazolo[1,2-a]pyridazines as selective COX-2 inhibitors; Ultrasound-assisted synthesis, biological evaluation, and DFT calculations” (Bioorg Med Chem Lett, 2017)
